Results from article PMC9067539 (Bioorganic & medicinal chemistry letters, 2022).
Like-named read-outs stand apart in the source and are kept apart here. Values belong to the compound of their own block, whether it stands above or below them.

Tests used:
DYRK1A [1] = target: T1, DYRK1A (Rattus norvegicus, UniProt Q63470); assay: DYRK1A ELISA kinase assay; format: biochemical; conditions: for times less potent against DYRK1A compared to the di-hydroxy derivatives: A-ring hydroxyl removal, vs GCG
[2] = Stability in biological media; format: in vitro ADME; conditions: biological media (plasma and hepatocytes media)
[3] = system: spinal cord inflammation, demyelination, and axonal neurodegeneration; assay: Histopathological analysis of spinal cord sections of EAE mice; format: in vivo; conditions: intranasal vs oral, 15 mg/kg BID
DYRK1A [4] = target: T1, DYRK1A; assay: DYRK1A ELISA assay with varying concentrations of ATP; format: biochemical; conditions: [ATP] up to 0.8 mM
[5] = system: MOG35–55-induced murine model of chronic progressive Experimental Autoimmune Encephalomyelitis (EAE); assay: EAE therapeutic model, disease scores; format: in vivo
[6] = Exposure after intranasal compared to oral route; format: in vivo; conditions: brain and peripheral blood; data not shown
[7] = cited from earlier work
[8] = mice; cited from earlier work

times less potent against DYRK1A compared to the di-hydroxy derivatives (DYRK1A [1]): about 4 times
IC50 (DYRK1A [1]; read-out: DYRK1A IC50, ELISA assay): 422 nM
Structure (SMILES): O=C(O[C@H]1Cc2ccccc2O[C@@H]1c1cc(O)c(O)c(O)c1)c1cc(O)c(O)c(O)c1 (racemic) [1a]

fold more potent than catechin gallate (CG) (DYRK1A [1]): about 3 fold
stability in biological media [2]: improved stability in biological media
Structure (SMILES): O=C(O[C@@H]1Cc2c(O)cc(O)cc2O[C@H]1c1ccc(O)c(O)c1)c1cc(O)c(O)c(O)c1F (racemic) [1r]

times less potent against DYRK1A compared to the di-hydroxy derivatives (DYRK1A [1]): ~2 times
Structure (SMILES): O=C(OC1Cc2c(O)cccc2OC1c1cc(O)c(O)c(O)c1)c1cc(O)c(O)c(O)c1 (centres unmarked) [1b]

Structure (SMILES): O=C(OC1Cc2ccccc2CC1c1cc(O)c(O)c(O)c1)c1cc(O)c(O)c(O)c1 (centres unmarked) [1c]
stability in biological media [2]: does not improve stability in biological media

fold improvement in activity against DYRK1A compared to GCG (DYRK1A [1]): about 3 fold
effect of [ATP] on inhibitory potency (DYRK1A [4]): only marginally affected
Structure (SMILES): O=C(O[C@@H]1Cc2c(O)cc(O)cc2O[C@H]1c1cc(O)c(O)c(O)c1)c1cc(O)c(O)c(O)c1F [1f]
spinal cord lesion severity, intranasal versus oral administration [3]: more effective at reducing lesion severity than oral administration
EAE disease scores ([5]; intranasal, 15 mg/kg twice daily): reversal of the disease scores similar to that observed with FTY720
EAE disease scores ([5]; oral (PO), 15 mg/kg BID): no significant amelioratory effect until the last two days of the study

Structure (SMILES): O=C(O[C@@H]1Cc2c(O)cc(O)cc2O[C@H]1c1cc(O)c(O)c(O)c1F)c1cc(O)c(O)c(O)c1 [1n]
stability in biological media [2]: did not translate into a stability improvement in biological media

Structure (SMILES): O=C(O[C@@H]1Cc2c(O)cc(O)cc2O[C@H]1c1cc(O)c(O)c(O)c1)c1cc(O)c(O)c(O)c1 [(−)GCG, reference compound]
effect of [ATP] on inhibitory potency (DYRK1A [4]): only marginally affected

exposure increase with intranasal compared to the oral route [6]: 50 fold
Structure (SMILES): O=C(O[C@@H]1Cc2c(O)cc(O)cc2O[C@H]1c1ccc(O)c(O)c1)c1cc(O)c(O)c(O)c1 [CG, catechin gallate]

Structure (SMILES): Oc1cc(O)c2c(c1)O[C@H](c1cc(O)c(O)c(O)c1)[C@H](O)C2 [EGC, EpiGalloCatechin, reference compound]
IC50 (DYRK1A [1]): > 100000 nM

Structure (SMILES): O=C(O[C@@H]1Cc2c(O)cc(O)cc2O[C@@H]1c1cc(O)c(O)c(O)c1)c1cc(O)c(O)c(O)c1 [EGCG, Epigallocatechin gallate]
oral bioavailability (F) ([7]; rats): up to 5%
oral bioavailability (F) [8]: up to 12%
EAE disease scores ([5]; oral (PO), 15 mg/kg BID): did not see any significant activity

Structure (SMILES): COc1cc(C(=O)O[C@@H]2Cc3c(O)cc(O)cc3O[C@@H]2c2cc(O)c(O)c(O)c2)cc(O)c1O [EGCG-3”OMe]
fold improved oral bioavailability than EGCG [7]: about 6 fold

Structure (SMILES): CCCCCCCCc1ccc(CCC(N)(CO)CO)cc1 [FTY720, Fingolimod, reference compound]
EAE disease scores ([5]; 1 mg/kg QD): reversal of the disease scores
